# Assay results taken from ChEMBL document CHEMBL5096155, “Recent advance of peptide-based molecules and nonpeptidic small-molecules modulating PD-1/PD-L1 protein-protein interaction or targeting PD-L1 protein degradation” (Eur J Med Chem, 2021).
# Square brackets hold non-standard residues; d marks the D form. Peptide text beside a SMILES is read from it. * marks the point of attachment. ξ: configuration not given here. X1 = NC(CO)C(=O)NC(Cc1ccccc1)C(=O)NCCCCN*; ξE = NC(CCC(=O)O)C(=O)O
# Assays:
# Splenocyte [1] = assay: Cytoprotective activity against mouse splenocyte co-cultured with MDA-MB-231 cells overexpressing PD-L1 assessed as rescue of cell proliferation at 100 nM by cell proliferation assay; assay type: functional
# Splenocyte [2] = assay: Rescue of cell viability in mouse PD-L1 stimulated splenocyte at 100 nM incubated for 72 hrs by CFSE proliferation assay; assay type: functional
# [3] = biological target: T1, Programmed cell death protein 1/Programmed cell death 1 ligand 1 (Homo sapiens, UniProt Q15116+Q9NZQ7); assay: Inhibition of human PD-1/PD-L1 interaction by HTRF binding assay; assay type: protein-complex assay
# [4] = biological target: T1, Programmed cell death protein 1/Programmed cell death 1 ligand 1; assay: Inhibition of recombinant human PD-1/PD-L1 interaction incubated for 40 mins by HTRF binding assay; assay type: protein-complex assay
# [5] = biological target: T1, Programmed cell death protein 1/Programmed cell death 1 ligand 1; assay: Inhibition of PD-1/PD-L1 interaction (unknown origin); assay type: protein-complex assay
# B16-F10 [6] = assay: Antitumor activity in mouse B16-F10 cells xenografted mouse lung metastasis model assessed as reduction in lung metastasis; assay type: functional; parameters: scale not given: the % may be the effect or the level left
# [7] = biological target: T1, Programmed cell death protein 1/Programmed cell death 1 ligand 1; assay: Inhibition of PD-1/PD-L1 interaction (unknown origin) by HTRF binding assay; assay type: protein-complex assay
# B16-F10 [8] = assay: Antitumor activity in mouse B16-F10 cells xenografted mouse model assessed as tumor growth inhibition at 15 mg/kg,sc; assay type: functional
# [9] = Cytoprotective activity against rat PMA-stimulated PBMC cells expressing PD-1 co-cultured with human MDA-MB-231 cells expressing PD-L1 assessed as rescue of cell proliferation by cell proliferation assay; assay type: functional, cell-based
# [10] = Cytoprotective activity against rat PMA-stimulated PBMC cells expressing PD-1 co-cultured with human HEK293 cells expressing PD-L2 assessed as rescue of cell proliferation by cell proliferation assay; assay type: functional, cell-based
# [11] = biological target: T1, Programmed cell death protein 1/Programmed cell death 1 ligand 1; assay: Inhibition of PD-1/PD-L1 interaction (unknown origin) incubated for 15 mins by HTRF assay; assay type: protein-complex assay
# [12] = biological target: T1, Programmed cell death protein 1/Programmed cell death 1 ligand 1; assay: Inhibition of PD-1/PD-L1 interaction (unknown origin) incubated for 1 to 24 hrs by HTRF assay; assay type: protein-complex assay
# CT26 = assay: Antitumor activity against mouse CT26 cells xenografted BALB/c mouse assessed as reduction in tumor growth; assay type: functional; parameters: scale not given: the % may be the effect or the level left
# [13] = biological target: T2, Programmed cell death 1 ligand 1 (Homo sapiens, UniProt Q9NZQ7); assay: Inhibition of PD-L1 (unknown origin)
# [14] = biological target: T3, V-type immunoglobulin domain-containing suppressor of T-cell activation (Homo sapiens, UniProt Q9H7M9); assay: Inhibition of VISTA (unknown origin)
# T3 sequence (Q9H7M9 whole entry): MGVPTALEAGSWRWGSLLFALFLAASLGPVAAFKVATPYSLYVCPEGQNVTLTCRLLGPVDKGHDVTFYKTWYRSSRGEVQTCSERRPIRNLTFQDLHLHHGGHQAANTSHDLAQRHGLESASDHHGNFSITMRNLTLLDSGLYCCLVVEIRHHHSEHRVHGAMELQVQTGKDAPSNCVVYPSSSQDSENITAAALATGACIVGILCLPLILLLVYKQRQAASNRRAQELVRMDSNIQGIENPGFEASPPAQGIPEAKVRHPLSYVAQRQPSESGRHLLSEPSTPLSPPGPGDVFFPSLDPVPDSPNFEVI
# [15] = biological target: T2, Programmed cell death 1 ligand 1; assay: Binding affinity to human recombinant PD-L1 by surface plasmon resonance assay
# NCI-H460 = assay: Antitumor activity in human NCI-H460 cells xenografted Balb/c mouse assessed as reduction in tumor mass at 4 mg/kg,sc administrated upto 72 hrs; assay type: functional; parameters: scale not given: the % may be the effect or the level left
# [16] = Cytoprotective activity against mouse PD-1 stimulated T cell assessed as rescue of PD-1 stimulated inhibition of IFN-gamma production by ELISA; assay type: functional, cell-based
# T2 sequence (Q9NZQ7 whole entry, the tested form may be a part): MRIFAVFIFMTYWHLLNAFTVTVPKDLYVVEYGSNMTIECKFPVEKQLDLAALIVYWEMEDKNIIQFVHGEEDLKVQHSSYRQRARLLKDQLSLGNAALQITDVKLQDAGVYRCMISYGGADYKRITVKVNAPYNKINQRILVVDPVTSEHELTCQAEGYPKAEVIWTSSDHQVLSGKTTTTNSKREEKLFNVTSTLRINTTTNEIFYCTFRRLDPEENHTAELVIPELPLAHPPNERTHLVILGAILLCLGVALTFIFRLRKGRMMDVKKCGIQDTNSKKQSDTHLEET
# T1 sequence (Q15116 whole entry): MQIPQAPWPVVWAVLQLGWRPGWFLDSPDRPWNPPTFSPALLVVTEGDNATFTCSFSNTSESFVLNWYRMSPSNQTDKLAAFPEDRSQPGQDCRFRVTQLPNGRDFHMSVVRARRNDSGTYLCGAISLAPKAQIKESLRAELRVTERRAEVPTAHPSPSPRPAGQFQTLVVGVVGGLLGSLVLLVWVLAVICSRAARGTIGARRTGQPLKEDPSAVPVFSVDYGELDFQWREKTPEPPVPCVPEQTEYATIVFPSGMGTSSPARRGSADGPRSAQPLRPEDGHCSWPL
# T1 sequence (Q9NZQ7 whole entry): as the sequence (Q9NZQ7 whole entry, the tested form may be a part) above
molecule,measurement,setting,value
NCCCC[C@H](NC(=O)N[C@@H](CC(N)=O)C(=O)NNC(=O)[C@@H](N)CO)C(=O)O,Activity,Splenocyte [1],87%
C[C@@H](O)[C@H](N)c1noc([C@H](Cc2ccc(O)cc2)NC(=O)N2CCC[C@H]2C(=O)O)n1,Activity,Splenocyte [2],99%
COc1nc(OCc2cccc(-c3cccc(COc4ccc(CNCCNC(C)=O)c(OC)n4)c3C)c2C)ccc1CNCCNC(C)=O,IC50,[3],125 nM
N#Cc1c(NC(=O)c2ccc(CNCCO)cn2)cccc1-c1ccccc1,IC50,[4],< 10 nM
Cc1c(-c2ccccc2)cccc1-c1nc2cc(CNCCO)ccc2o1,IC50,[5],< 1000 nM
Cc1c(NC(=O)c2cc(CN3CCCC[C@H]3C(=O)O)cn(C)c2=O)cccc1-c1ccccc1,IC50,[4],< 100 nM
C[C@H](O)[C@@H]1NC(=O)CCOCCOCCNC(=O)[C@H](CO)NC(=O)N[C@H](C(N)=O)C(=O)NNC1=O,Activity,Splenocyte [2],94%
C[C@@H](O)[C@@H]1NC(=O)C(N[C@@H](CO)C(=O)O)CCC(=O)NCCCCC(C(=O)N[C@@H](CO)C(=O)N[C@@H](Cc2ccccc2)C(N)=O)NC(=O)[C@H](CO)NC1=O (some centres undefined),Activity,B16-F10 [6],54%
Cc1cc(CN[C@@H](CO)C(=O)O)c(OCc2cncc(C#N)c2)cc1OCc1cccc(-c2ccc3c(c2)OCCO3)c1C,IC50,[7],2.25 nM
O=C(O)[C@H](CO)NCc1cc(Cl)c(OCc2cccc(-c3ccccc3)c2Br)cc1OCc1cccnc1,inhibition in vivo at 15 mg/kg,B16-F10 [8],64.1%
Cc1c(COc2cc(OCc3cccc(C#N)c3)c(CN[C@@H](CO)C(=O)O)cc2Cl)cccc1-c1ccc2c(c1)OCCO2,IC50,[7],1.48 nM
Cc1c(COc2cc(OCc3cccc(C#N)c3)c(CN[C@H](CCO)C(=O)O)cc2Cl)cccc1-c1cccc(COc2cc(OCc3cccnc3)c(CN[C@@H](CCO)C(=O)O)cc2Cl)c1,IC50,[7],0.04 nM
C[C@H](O)[C@H](NC(=O)N[C@@H](CC(N)=O)C(=O)NNC(=O)[C@@H](N)CO)C(=O)O,Activity,Splenocyte [2],68%
same,EC50,[9],30 nM
same,Activity,Splenocyte [1],87%
same,EC50,[10],40 nM
CNC(=O)C[C@@H]1NC(=O)O[C@@H]([C@H](C)O)C(=O)NCCOCCOCC(=O)N[C@@H](CCO)c2noc1n2,IC50,[11],< 10 nM
C[C@H](O)[C@@H]1NC(=O)NCc2nc(no2)[C@H](CO)NC(=O)COCCOCCNC1=O,IC50,[11],< 10 nM
Cc1c(/C=C/c2nc(CNC(C)(CO)C(=O)O)ccc2C(F)(F)F)cccc1-c1ccc2c(c1)OCCO2 (centres undefined),IC50,[12],18 nM
COc1cc(/C=C/c2cccc(-c3ccccc3)c2)cc(OC)c1CN[C@](C)(CO)C(=O)O,IC50,[12],48 nM
CC(O)[C@H](N)c1nnc([C@]2(NC(=O)N[C@@H](CO)C(=O)O)C[C@H](CC#N)C2)o1 (some centres undefined),Activity,CT26,63.7%
Cc1c(COc2cc(OCc3cncc(C#N)c3)c(CN[C@@H](CO)C(=O)O)cc2Cl)cccc1-c1cccc(OCCCN2CCC(O)CC2)c1,IC50,[7],0.48 nM
C[C@H](O)[C@H](NC(=O)N[C@@H](CC(N)=O)c1nnc([C@@H](N)CO)s1)C(=O)O,IC50,[13],37 nM
same,IC50,[14],17 nM
CC[C@H](C)[C@H](NC(=O)[C@H](CCC(N)=O)NC(=O)[C@H](C)NC(=O)[C@H](CCCCN)NC(=O)[C@H]1CCCN1C(=O)[C@H](C)NC(=O)[C@H](CC(C)C)NC(=O)[C@H](CCC(N)=O)NC(=O)[C@@H](NC(=O)[C@@H](NC(=O)[C@H](CCCNC(=N)N)NC(=O)[C@H](Cc1ccccc1)NC(=O)[C@H](CCCCNC(=O)[C@H](Cc1ccccc1)NC(=O)[C@H](CO)NC(=O)[C@H](CCC(=O)O)NC(=O)[C@H](CO)NC(=O)[C@@H](NC(=O)[C@H](CC(N)=O)NC(=O)[C@@H](N)CO)C(C)O)NC(=O)[C@H](Cc1ccccc1)NC(=O)[C@H](CO)NC(=O)[C@H](CCC(=O)O)NC(=O)[C@H](CO)NC(=O)[C@@H](NC(=O)[C@H](CC(N)=O)NC(=O)[C@@H](N)CO)[C@@H](C)O)C(C)C)[C@@H](C)O)C(=O)N[C@@H](CCCCN)C(=O)N[C@@H](CCC(=O)O)C(N)=O (some centres undefined),EC50,[9],0.41 nM
same,EC50,[10],0.72 nM
C[C@H](O)[C@@H]1NC(=O)N[C@H](C(N)=O)C(=O)NNC(=O)[C@H](CO)NC(=O)CCOCCOCCNC1=O,Activity,Splenocyte [2],95%
N#Cc1c(-c2ccccc2)cccc1N1CCC(NC2CCCOC2)CC1 (centres undefined),IC50,[5],< 1000 nM
C[C@@H](O)[C@H](N)c1nnc([C@H](CCC(N)=O)NC(=O)N[C@@H](CO)C(=O)O)o1,Activity,Splenocyte [2],92%
C[C@H](NC(=O)[C@H](Cc1ccc(O)cc1)NC(=O)[C@H](CCC(N)=O)NC(=O)CNC(=O)[C@@H](N)CO)C(=O)N[C@@H](CO)C(=O)N[C@@H](Cc1ccc(O)cc1)C(=O)N[C@@H](Cc1cnc[nH]1)C(=O)N[C@@H](CS)C(=O)N[C@@H](Cc1c[nH]c2ccccc12)C(=O)N[C@@H](CS)C(=O)N[C@@H](Cc1c[nH]c2ccccc12)C(=O)N[C@@H](CCCNC(=N)N)C(=O)N[C@@H](CC(=O)O)C(=O)N1CCC[C@H]1C(=O)NCC(=O)N[C@@H](CCCNC(=N)N)C(=O)N[C@@H](CO)C(=O)NCC(=O)NCC(=O)N[C@@H](CO)C(=O)N[C@@H](CCCCN)C(=O)O (H-SGQYASYHCWCWRDPGRSGGSK-OH),Kd,[15],94 nM
same,Activity,NCI-H460,56%
C[C@@H](O)[C@H](NC(=O)[C@H](CC(N)=O)NC(=O)[C@@H](N)CO)C(=O)N[C@@H](CO)C(=O)NC(CCC(=O)NCCCCNC(=O)C(Cc1ccccc1)NC(=O)C(N)CO)C(N)=O (some centres undefined) (H-SNTS[ξE](X1)-NH2),Activity,B16-F10 [6],64%
COc1cc(NS(=O)(=O)c2ccc(N)cc2)ncn1 [SULFAMONOMETHOXINE],IC50,[16],> 400 nM
H-GNWDYNSQRAQLYNQ-OH,Kd,[15],1380 nM
